Bridge positions count the residues as written; N and C are the ends. Square brackets hold non-standard residues; d marks the D form. Peptide text beside a SMILES is read from it. * marks the point of attachment. ξ: configuration not given here. Phe(4-(3-Py)) = N[C@@H](Cc1ccc(-c2cccnc2)cc1)C(=O)O; Phe(4-COOH) = N[C@@H](Cc1ccc(C(=O)O)cc1)C(=O)O; Bip = N[C@@H](Cc1ccc(-c2ccccc2)cc1)C(=O)O; Phe(4-CN) = N#Cc1ccc(C[C@H](N)C(=O)O)cc1; Phe(3-Me) = Cc1cccc(C[C@H](N)C(=O)O)c1; Phe(4-F) = N[C@@H](Cc1ccc(F)cc1)C(=O)O; Val(3-OH) = CC(C)(O)[C@H](N)C(=O)O; mTyr = N[C@@H](Cc1cccc(O)c1)C(=O)O; 4Pal = N[C@@H](Cc1ccncc1)C(=O)O; Cha = N[C@@H](CC1CCCCC1)C(=O)O; Cit = NC(=O)NCCC[C@H](N)C(=O)O; Ile(3ξ) = CCC(C)[C@H](N)C(=O)O; Thr(3ξ) = CC(O)[C@H](N)C(=O)O; Dap(Me) = CNC[C@H](N)C(=O)O; Carboxymethyl = O=C(O)C*; NMeA = CN[C@@H](C)C(=O)O; Aze = O=C(O)[C@@H]1CCN1; Dab = NCC[C@H](N)C(=O)O; Dap = NC[C@H](N)C(=O)O; Aib = CC(C)(N)C(=O)O; ξC = NC(CS)C(=O)O

In the experiment the target is T1, PE-labeled human PD-L1-Ig binding to Jurkat cell line over-expressing human PD-1 (Jurkat-PD-1) (Homo sapiens, UniProt Q15116).
T1 construct: expressed in transfected cells; host or cells: Jurkat
T1 sequence (Q15116 25-288): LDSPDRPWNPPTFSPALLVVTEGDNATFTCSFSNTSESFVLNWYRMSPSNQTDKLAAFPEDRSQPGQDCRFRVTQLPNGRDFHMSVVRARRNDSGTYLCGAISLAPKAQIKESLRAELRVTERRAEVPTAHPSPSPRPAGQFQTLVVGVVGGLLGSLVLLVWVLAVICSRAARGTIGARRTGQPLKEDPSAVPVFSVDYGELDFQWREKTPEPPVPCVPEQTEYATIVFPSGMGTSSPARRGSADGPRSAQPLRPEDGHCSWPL
The experiment is described as follows: Jurkat-PD-1 Cell Binding High-Content Screening Assay (CBA): Method 1. The conditions noted are these: Jurkat-hPD-1 cells, PE-labeled PD-L1-Ig 20 nM final; read-out: Jurkat HPDL1 PD1 IC50 (uM) (Method 1).
As usually defined, the IC50 is the concentration that inhibits the measured activity by half. As to `CC(C)C[C@@H]1NC(=O)[C@H](CCN)NC(=O)[C@@H](CC(C)C)NC(=O)[C@@H]2CCN2C(=O)[C@H](C(C)C)NC(=O)[C@H](Cc2ccc(-c3ccccc3)cc2)NC(=O)[C@H](C(C)C)NC(=O)[C@H](Cc2c[nH]c3ccccc23)NC(=O)[C@H](CC(=O)O)NC(=O)[C@H](Cc2ccc(O)cc2)NC(=O)[C@H](CC(N)=O)NC(=O)CSC[C@@H](C(=O)N[C@@H](C)C(N)=O)NC(=O)[C@H]([C@@H](C)O)NC(=O)[C@H](C(C)C)NC1=O` [Compound 1297] ({CH2CO}-NYDWV[Bip]V[Aze][dL][Dab]LVTCA-NH2; thioether N-14), the IC50 was 0.32 µM.
In the case of `CCC(C)[C@@H]1NC(=O)[C@H](Cc2ccc(-c3ccccc3)cc2)NC(=O)[C@H](C(C)C)NC(=O)[C@H](Cc2c[nH]c3ccccc23)NC(=O)[C@H](CC(N)=O)NC(=O)[C@H](Cc2ccc(OCC(=O)O)cc2)NC(=O)[C@H](Cc2ccncc2)NC(=O)CSC[C@@H](C(=O)N[C@@H](CCCCN)C(N)=O)NC(=O)[C@H](C(C)O)NC(=O)[C@H](C(C)C)NC(=O)[C@H](CC(C)C)NC(=O)[C@H](CC(N)=O)NC(=O)[C@@H](CC(C)C)NC(=O)[C@H](C)N(C)C1=O` (stereo partly drawn) [Compound 2055] ({CH2CO}-[4Pal]Y(Carboxymethyl)NWV[Bip][Ile(3ξ)][NMeA][dL]NLV[Thr(3ξ)]CK-NH2; thioether N-14), the IC50 turned out to be 0.95 µM.
With `CC(C)C[C@@H]1NC(=O)[C@H](Cc2c[nH]c3ccccc23)NC(=O)[C@H](CC(=O)O)NC(=O)[C@H](Cc2ccc(O)cc2)NC(=O)[C@H](Cc2ccccc2)NC(=O)CSC[C@@H](C(=O)NCC(N)=O)NC(=O)[C@H](CO)NC(=O)[C@H](C(C)C)NC(=O)[C@H](CC(C)C)NC(=O)[C@H](CC(N)=O)NC(=O)C(C)(C)NC(=O)[C@H](C)N(C)C(=O)[C@H](C(C)C)NC(=O)[C@H](Cc2ccc(-c3ccccc3)cc2)NC1=O` [Compound 1818] ({CH2CO}-FYDWL[Bip]V[NMeA][Aib]NLVSCG-NH2; thioether N-14), the half-inhibitory concentration (IC50) was found to be 0.42 µM.
As for `CC[C@H](C)[C@@H]1NC(=O)[C@H](Cc2ccc(-c3ccccc3)cc2)NC(=O)[C@H](C(C)(C)O)NC(=O)[C@H](Cc2cccc(C)c2)NC(=O)[C@H](CC(=O)O)NC(=O)[C@H](Cc2ccc(O)cc2)NC(=O)[C@H](CC(N)=O)NC(=O)CSC[C@@H](C(=O)N[C@H](C)C(N)=O)NC(=O)[C@H](CCC(=O)O)NC(=O)[C@H](C(C)C)NC(=O)[C@H](CC2CCCCC2)NC(=O)[C@H](CCN)NC(=O)[C@@H](CC(C)C)NC(=O)[C@H](C)N(C)C1=O` [Compound 1698] ({CH2CO}-NYD[Phe(3-Me)][Val(3-OH)][Bip]I[NMeA][dL][Dab][Cha]VEC[dA]-NH2; thioether N-14), the figure is 0.1 µM.
On to `CC(C)C[C@@H]1NC(=O)[C@H](CCCNC(=N)N)NC(=O)[C@@H](CC(C)C)NC(=O)[C@H](C)N(C)C(=O)[C@H](CCCNC(N)=O)NC(=O)[C@H](Cc2ccc(-c3ccccc3)cc2)NC(=O)[C@H](C(C)C)NC(=O)[C@H](Cc2c[nH]c3ccccc23)NC(=O)[C@H](CC(=O)O)NC(=O)[C@H](Cc2ccc(O)cc2)NC(=O)[C@H](CC(N)=O)NC(=O)CSC[C@@H](C(=O)NCC(N)=O)NC(=O)[C@H](CO)NC(=O)[C@H](C(C)C)NC1=O` [Compound 1246] ({CH2CO}-NYDWV[Bip][Cit][NMeA][dL]RLVSCG-NH2; thioether N-14), for which the IC50 amounted to 0.05 µM.
Take `CC(C)C[C@@H]1NC(=O)[C@H](CCCNC(=N)N)NC(=O)[C@@H](CC(C)C)NC(=O)[C@H](C)N(C)C(=O)[C@H](CCCNC(=N)N)NC(=O)[C@H](Cc2ccc(-c3ccccc3)cc2)NC(=O)[C@H](C(C)C)NC(=O)[C@H](Cc2c[nH]c3ccccc23)NC(=O)[C@H](CC(=O)O)NC(=O)[C@H](Cc2ccc(F)cc2)NC(=O)[C@H](Cc2ccccc2)NC(=O)CSC[C@@H](C(=O)N[C@@H](C)C(N)=O)NC(=O)[C@H]([C@@H](C)O)NC(=O)[C@H](C(C)C)NC1=O` [Compound 1080] ({CH2CO}-F[Phe(4-F)]DWV[Bip]R[NMeA][dL]RLVTCA-NH2; thioether N-14): the IC50 was found to be 0.14 µM.
On to `CCC(C)[C@@H]1NC(=O)[C@H](Cc2ccc(-c3ccccc3)cc2)NC(=O)[C@H](C(C)C)NC(=O)[C@H](Cc2c[nH]c3ccccc23)NC(=O)[C@H](CC(=O)O)NC(=O)[C@H](Cc2ccc(O)cc2)NC(=O)[C@H](CNC)NC(=O)CSC[C@@H](C(=O)N[C@@H](C)C(N)=O)NC(=O)[C@H](C(C)O)NC(=O)[C@H](C(C)C)NC(=O)[C@H](CC2CCCCC2)NC(=O)[C@H](CCN)NC(=O)[C@@H](CC(C)C)NC(=O)[C@H](C)N(C)C1=O` (stereo partly drawn) [Compound 2050] ({CH2CO}-[Dap(Me)]YDWV[Bip][Ile(3ξ)][NMeA][dL][Dab][Cha]V[Thr(3ξ)]CA-NH2; thioether N-14), for which the half-inhibitory concentration (IC50) amounted to 0.01 µM.
For `CC(C)C[C@@H]1NC(=O)[C@H](CCN)NC(=O)[C@@H](CC(C)C)NC(=O)[C@H](C)N(C)C(=O)[C@H](C(C)C)NC(=O)[C@H](Cc2ccc(-c3ccccc3)cc2)NC(=O)[C@H](C(C)C)NC(=O)[C@H](Cc2c[nH]c3ccccc23)NC(=O)[C@H](CC(=O)O)NC(=O)[C@H](Cc2ccc(O)cc2)NC(=O)[C@H](CN)NC(=O)CSC[C@@H](C(=O)N[C@@H](C)C(N)=O)NC(=O)[C@H]([C@@H](C)O)NC(=O)[C@H](C(C)C)NC1=O` [Compound 1360] ({CH2CO}-[Dap]YDWV[Bip]V[NMeA][dL][Dab]LVTCA-NH2; thioether N-14), the half-maximal inhibitory concentration (IC50) worked out at 0.02 µM.
Consider `CC(C)C[C@@H]1NC(=O)[C@H](CCN)NC(=O)[C@@H](CC(C)C)NC(=O)[C@H](C)N(C)C(=O)[C@H](CCCNC(=N)N)NC(=O)[C@H](Cc2ccc(-c3ccccc3)cc2)NC(=O)[C@H](C(C)C)NC(=O)[C@H](Cc2c[nH]c3ccccc23)NC(=O)[C@H](CC(=O)O)NC(=O)[C@H](Cc2ccc(C#N)cc2)NC(=O)[C@H](CN)NC(=O)CSC[C@@H](C(=O)N[C@@H](C)C(N)=O)NC(=O)[C@H]([C@@H](C)O)NC(=O)[C@H](C(C)C)NC1=O` [Compound 1444] ({CH2CO}-[Dap][Phe(4-CN)]DWV[Bip]R[NMeA][dL][Dab]LVTCA-NH2; thioether N-14), for which the IC50 was determined as 0.08 µM.
With `CC(C)C[C@@H]1NC(=O)[C@H](CCN)NC(=O)[C@@H](CC(C)C)NC(=O)[C@H](C)N(C)C(=O)[C@H](CCCNC(N)=O)NC(=O)[C@H](Cc2ccc(-c3ccccc3)cc2)NC(=O)[C@H](C(C)C)NC(=O)[C@H](Cc2c[nH]c3ccccc23)NC(=O)[C@H](CC(=O)O)NC(=O)[C@H](Cc2ccc(C(=O)O)cc2)NC(=O)[C@H](Cc2ccncc2)NC(=O)CSC[C@@H](C(=O)N[C@@H](C)C(N)=O)NC(=O)[C@H]([C@@H](C)O)NC(=O)[C@H](C(C)C)NC1=O` [Compound 1328] ({CH2CO}-[4Pal][Phe(4-COOH)]DWV[Bip][Cit][NMeA][dL][Dab]LVTCA-NH2; thioether N-14), the 50% inhibitory concentration (IC50) came to 0.01 µM.
As for `CC(C)C[C@@H]1NC(=O)[C@H](CCCNC(=N)N)NC(=O)[C@@H](CC(C)C)NC(=O)[C@H](C)N(C)C(=O)[C@H](CCCNC(=N)N)NC(=O)[C@H](Cc2ccc(-c3cccnc3)cc2)NC(=O)[C@H](C(C)C)NC(=O)[C@H](Cc2c[nH]c3ccccc23)NC(=O)[C@H](CC(=O)O)NC(=O)[C@H](Cc2ccc(O)cc2)NC(=O)[C@H](Cc2ccccc2)NC(=O)CSC[C@@H](C(=O)N[C@@H](C)C(N)=O)NC(=O)[C@H]([C@@H](C)O)NC(=O)[C@H](C(C)C)NC1=O` [Compound 1096] ({CH2CO}-FYDWV[Phe(4-(3-Py))]R[NMeA][dL]RLVTCA-NH2; thioether N-14), the figure is 0.29 µM.
Regarding `CCC(C)[C@@H]1NC(=O)[C@H](Cc2ccc(-c3ccccc3)cc2)NC(=O)[C@H](C(C)C)NC(=O)[C@H](Cc2c[nH]c3ccccc23)NC(=O)[C@H](CC(=O)O)NC(=O)[C@H](Cc2ccc(O)cc2)NC(=O)[C@H](Cc2ccncc2)NC(=O)CSCC(C(=O)N[C@@H](CCCCN)C(=O)O)NC(=O)[C@H](C(C)O)NC(=O)[C@H](C(C)C)NC(=O)[C@H](CC2CCCCC2)NC(=O)[C@H](CC(N)=O)NC(=O)[C@@H](CC(C)C)NC(=O)[C@H](C)N(C)C1=O` (stereo partly drawn) [Compound 2215] ({CH2CO}-[4Pal]YDWV[Bip][Ile(3ξ)][NMeA][dL]N[Cha]V[Thr(3ξ)][ξC]K-OH; thioether N-14), the IC50 amounted to 0.03 µM.
As for `CC(C)C[C@@H]1NC(=O)[C@H](Cc2c[nH]c3ccccc23)NC(=O)[C@H](CC(=O)O)NC(=O)[C@H](Cc2cccc(O)c2)NC(=O)[C@H](Cc2ccccc2)NC(=O)CSC[C@@H](C(=O)N[C@@H](C)C(N)=O)NC(=O)[C@H](CO)NC(=O)[C@H](C(C)C)NC(=O)[C@H](CC(C)C)NC(=O)[C@H](CC(N)=O)NC(=O)[C@@H](C)NC(=O)[C@H](C)N(C)C(=O)[C@H](C(C)C)NC(=O)[C@H](Cc2ccc(-c3ccccc3)cc2)NC1=O` [Compound 1765] ({CH2CO}-F[mTyr]DWL[Bip]V[NMeA][dA]NLVSCA-NH2; thioether N-14), the figure is 0.04 µM; as for `CC[C@H](C)[C@@H]1NC(=O)[C@H](Cc2ccc(-c3ccccc3)cc2)NC(=O)[C@H](C(C)C)NC(=O)[C@H](Cc2c[nH]c3ccccc23)NC(=O)[C@H](CC(=O)O)NC(=O)[C@H](Cc2ccc(O)cc2)NC(=O)[C@H](Cc2ccc(OCC(=O)O)cc2)NC(=O)CSC[C@@H](C(=O)N[C@@H](C)C(N)=O)NC(=O)[C@H]([C@@H](C)O)NC(=O)[C@H](C(C)C)NC(=O)[C@H](CC2CCCCC2)NC(=O)[C@H](CCCNC(=N)N)NC(=O)[C@@H](CC(C)C)NC(=O)[C@H](C)N(C)C1=O` [Compound 1493] ({CH2CO}-Y(Carboxymethyl)YDWV[Bip]I[NMeA][dL]R[Cha]VTCA-NH2; thioether N-14), 0.03 µM; as for `Cc1cccc(C[C@@H]2NC(=O)[C@H](CC(=O)O)NC(=O)[C@H](Cc3ccc(OCC(=O)O)cc3)NC(=O)[C@H]([C@@H](C)O)NC(=O)CSC[C@@H](C(N)=O)NC(=O)[C@H]([C@@H](C)O)NC(=O)[C@H](C(C)C)NC(=O)[C@H](CC3CCCCC3)NC(=O)[C@H](CC(N)=O)NC(=O)[C@@H](CC(C)C)NC(=O)[C@H](C)N(C)C(=O)[C@H](Cc3ccc(OCC(=O)O)cc3)NC(=O)[C@H](Cc3ccc(-c4ccccc4)cc3)NC(=O)[C@H](Cc3ccc(OCC(=O)O)cc3)NC2=O)c1` [Compound 1678] ({CH2CO}-TY(Carboxymethyl)D[Phe(3-Me)]Y(Carboxymethyl)[Bip]Y(Carboxymethyl)[NMeA][dL]N[Cha]VTC-NH2; thioether N-14), 0.15 µM.

(Values after patent US20240409585A1, “MACROCYCLIC IMMUNOMODULATORS” (priority 2021, published 2024).)
